Data on 6 compounds can be found in paper PMC6010053, “The hop-derived compounds xanthohumol, isoxanthohumol and 8-prenylnaringenin are tight-binding inhibitors of human aldo-keto reductases 1B1 and 1B10” (Journal of Enzyme Inhibition and Medicinal Chemistry, 2018).

Molecules are shown by their SMILES.

Test [1] deals with AKR1B1. Further details: method as in earlier work. The settings on record: glyceraldehyde as substrate; cited from earlier work.
Test [2] deals with T1, AKR1B1 (Homo sapiens, UniProt P15121).
T1 construct: 6xHis; made in house; host or cells: E. coli BL21 (DE3)
In words: AKR1B1-catalysed glucose reduction (physiological substrate). In kind it is biochemical. The settings on record: for Ki / IC50: glucose at KM 32 mM, mean ± SD; for Ki: Morrison equation; for IC50: at least three experiments; for mode of inhibition: with respect to the substrate glucose, IC50 at five substrate concentrations. Here is the method:
(§1) Catalytic properties were determined by measuring the decrease in absorbance at 340 nm at 37 °C (Cary 100 scan photometer, Varian, Pal Alto, CA, USA). A reaction mixture without inhibitor consisted of different concentrations of substrate (see Table 1 for details), 200 μM NADPH, 0.1 M NaH2PO4 buffer (pH 7.4) and an appropriate amount of enzyme in a total assay volume of 0.8 ml. Final enzyme concentrations in the assay ranged from 583 nM (AKR1B10) to 712 nM (AKR1B1). For inhibitor selectivity studies on AKR1A1, AKR1B1 and AKR1B10 stock solutions of the inhibitors XN, XI and 8-PN were prepared in dimethyl sulfoxide (DMSO). The final concentration of DMSO in the assay was ≤0.5%. Activity measurements were started without pre-incubation by adding an appropriate amount of enzyme. When collecting data for dose–response curves, initial velocities of the glyceraldehyde reduction (concentration at KM; enzyme specific) in the presence of inhibitors were assayed as described above. The percentage of inhibition was calculated considering the activity in the absence of inhibitor to be 100%.
(§2) Initially, the half maximal inhibitory concentrations (IC50 values) were determined for each inhibitor in the presence of each enzyme, using the shared substrate glyceraldehyde (set to their specific Km; 3.6 mM, 50 µM and 4 mM for AKR1A1, AKR1B1 and AKR1B10, respectively) to assess specificity among the structurally similar members of the AKR-superfamily. For IC50 determination, experimental data were normalised and fitted to a sigmoidal curve as implemented in GraphPad6 (GraphPad Software Inc., La Jolla, CA, USA). Whenever tight-binding inhibition was observed, the inhibition constant Ki was determined by fitting inhibition data to the Morrison equation as implemented in GraphPad Prism6 (GraphPad Software Inc., La Jolla, CA, USA)[65], using non-linear regression.
(§3) In order to verify the inhibitory potency, enzyme-specific physiological substrates for AKR1B1 (glucose, KM = 32 mM) and AKR1B10 (farnesal; KM = 5 µM) were used to determine inhibition parameters. Enzyme inhibition parameters were assayed as described above. The inhibition mechanism of each compound for the respective enzymes was analysed by plotting IC50 values at different substrate concentrations (at least five inhibitor and substrate concentrations)[65]^,[66]. All data obtained were plotted and analysed using GraphPad Prism6 (GraphPad Software Inc., La Jolla, CA, USA).

Test [3] concerns the target T2, AKR1B10 (Homo sapiens, UniProt O60218).
T2 construct: 6xHis; made in house; host or cells: E. coli BL21 (DE3)
In words: AKR1B10-catalysed farnesal reduction (physiological substrate). The test is classed as biochemical. Conditions: for Ki / IC50: farnesal at KM 5 μM, mean ± SD; for Ki: Morrison equation; for IC50: at least three experiments; for mode of inhibition: with respect to the substrate farnesal, IC50 at five substrate concentrations. As to the method: as §1, §2, §3

Test [4] concerns the target T2, AKR1B10. In words: AKR1B10-catalysed glyceraldehyde (GA) reduction, NADPH absorbance decrease at 340 nm. In kind it is biochemical. Conditions: GA at KM 4 mM, mean ± SD; for IC50: 200 μM NADPH, pH 7.4, 37 °C, at least three experiments; for Ki: Morrison equation for tight-binding inhibitors. Here is the method: (§4) The recombinant enzymes AKR1A1, AKR1B1 and AKR1B10 were prepared in an Escherichia coli expression system according to previously published methods: AKR1A1 was a gentle gift from Prof. Dr. Vladimir Wsol[63]; AKR1B1 was a friendly gift from Dr. Nina Kassner; information about production and purification of AKR1B10 has been published before. Genetic information on the specific inserts of all obtained plasmids was verified by sequencing (MWG Eurofins). The plasmids were then transformed into E. coli BL21 (DE3) cells. For over-expression of 6 × His-tagged enzymes, a 400-ml culture (containing the appropriate antibiotic; plasmid dependent) was grown to an optical density of 0.6 at 600 nm at 37 °C. Protein over-expression was induced by adding isopropyl-1-thio-galactopyranoside (IPTG) to the culture medium (final concentration of 1 mM). After 3 h, cells were harvested by centrifugation (6000 g, 15 min) and re-suspended in 20 ml PBS-I buffer (20 mM NaH2PO4, 500 mM NaCl, 10 mM imidazole, pH 7.4). Cell disruption was performed by ultrasonication with cooling on ice, to avoid heating. The sample was subsequently centrifuged at 100,000 g at 4 °C for 1 h. The obtained supernatants, containing the target protein were purified using Ni-affinity chromatography on an ÄKTA-Purifier System (Amersham Pharmacia Biotech, Uppsala, Sweden). Purification progress was monitored by SDS-PAGE of the obtained fractions (not shown). Enzyme concentrations were determined using a Qubit 2.0 fluorometric quantitation system (Life Technologies, Carlsbad, CA, USA) according to the manufacturer’s instructions.
as §1, §2

Test [5] concerns the target T3, AKR1A1 (Homo sapiens, UniProt P14550).
T3 construct: 6xHis; made in house; host or cells: E. coli BL21 (DE3)
T3 sequence (P14550 1-325): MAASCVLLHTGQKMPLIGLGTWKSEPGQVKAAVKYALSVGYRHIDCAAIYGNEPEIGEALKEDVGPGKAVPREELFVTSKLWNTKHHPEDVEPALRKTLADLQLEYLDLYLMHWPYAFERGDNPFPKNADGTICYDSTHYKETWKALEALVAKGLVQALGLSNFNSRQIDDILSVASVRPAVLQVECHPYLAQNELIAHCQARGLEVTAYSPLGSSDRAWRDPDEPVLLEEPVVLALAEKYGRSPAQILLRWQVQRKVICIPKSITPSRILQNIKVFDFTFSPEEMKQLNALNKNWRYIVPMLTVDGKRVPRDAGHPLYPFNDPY
In words: AKR1A1-catalysed glyceraldehyde reduction (inhibitor selectivity). In kind it is biochemical. As to the method:
as §4
Catalytic properties were determined by measuring the decrease in absorbance at 340 nm at 37 °C (Cary 100 scan photometer, Varian, Pal Alto, CA, USA). A reaction mixture without inhibitor consisted of different concentrations of substrate (see Table 1 for details), 200 μM NADPH, 0.1 M NaH2PO4 buffer (pH 7.4) and an appropriate amount of enzyme in a total assay volume of 0.8 ml. […] The percentage of inhibition was calculated considering the activity in the absence of inhibitor to be 100%. […]

Test [6] concerns the target T1, AKR1B1. In words: AKR1B1-catalysed glyceraldehyde (GA) reduction, NADPH absorbance decrease at 340 nm. The test is classed as biochemical. Conditions: for IC50 / Ki: GA at KM 50 μM, mean ± SD; for IC50: 200 μM NADPH, pH 7.4, 37 °C, at least three experiments; for Ki: Morrison equation for tight-binding inhibitors; for mode of inhibition with respect to the co-factor binding site for NADPH: glyceraldehyde reduction, IC50 as a function of NADPH concentration. As to the method:
as §4
as §1, with “A reaction mixture without inhibitor consisted of different concentrations of substrate (see Table 1 for details), 200 μM NADPH, 0.1 M NaH2PO4 buffer (pH 7.4) and an appropriate amount of enzyme in a total assay volume of 0.8 ml.” left out
as §2

For test [7], the system named is AKR1B10. Further details: method as in PMID 26844556, PMID 27359042, PMID 28003428, PMID 26968129, PMID 21561086. The settings on record: selective inhibitors identified so far; cited from earlier work.

T2 sequence (O60218 whole entry): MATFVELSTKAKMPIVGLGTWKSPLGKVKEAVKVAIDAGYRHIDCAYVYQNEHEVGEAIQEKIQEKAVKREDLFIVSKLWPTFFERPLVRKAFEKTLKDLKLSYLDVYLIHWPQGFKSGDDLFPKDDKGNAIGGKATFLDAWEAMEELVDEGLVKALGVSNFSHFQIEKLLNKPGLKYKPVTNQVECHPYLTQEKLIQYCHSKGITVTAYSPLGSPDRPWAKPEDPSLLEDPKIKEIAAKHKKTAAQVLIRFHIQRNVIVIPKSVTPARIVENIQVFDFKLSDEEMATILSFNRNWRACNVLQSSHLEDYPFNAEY

Regarding `CC(C)=CCc1c(O)cc2c(c1O)C(=O)C[C@@H](c1ccc(O)cc1)O2` [6-PN, 6-prenylnaringenin], the IC50 – broadly, the point on the concentration scale where inhibition reaches its midpoint – in test [1] is 6.2 µM.

With `CC(C)=CCc1c(O)cc(O)c2c1O[C@H](c1ccc(O)cc1)CC2=O` [8-PN, 8-prenylnaringenin], in test [2], the Ki (in general, the dissociation constant of the complex between target and ligand, obtained from inhibition or displacement) turned out to be 0.71 ± 0.09 µM; it took 1.87 ± 0.09 µM to reach half-maximal inhibition (IC50); the mode of inhibition entry is recorded as “uncompetitive”. Further, in test [3], the Ki amounted to 1.95 ± 0.12 µM, the IC50 came to 3.96 ± 0.17 µM and the mode of inhibition entry is “uncompetitive”. In test [4], this compound displayed an IC50 of 0.99 ± 0.04 µM and a Ki of 0.52 ± 0.05 µM. The “effect on the activity of AKR1A1” value in test [5] was “not affecting”. Moreover, in test [6], the IC50 was found to be 0.81 ± 0.03 µM; the affinity, expressed as Ki, was 0.3 ± 0.03 µM; the “mode of inhibition with respect to the co-factor binding site for NADPH” value (“mode of inhibition … for NADPH” below) is “non-competitive”. Besides, in test [6] (ratio of AKR1B1 IC50 values, glyceraldehyde as substrate), the “inhibitory potency, times greater as compared to that of 6-PN” value was determined as 7.6 times.

With `C[C@@]12CCC[C@H]1[C@@H]1C[C@@H](O)[C@@]3(O)C[C@@H](O)CC[C@]3(CO)[C@H]1CC2` [Androst-3β,5α,6β,19-tetrol], in test [7], the IC50 was 0.86 µM.

For the compound `COc1cc(O)c(CC=C(C)C)c2c1C(=O)CC(c1ccc(O)cc1)O2` (stereo not shown) [IX, isoxanthohumol], the Ki in test [2] was determined as 0.34 ± 0.06 µM; in test [3], 2.25 ± 0.24 µM; in test [4], 0.52 ± 0.05 µM; in test [6], 0.17 ± 0.02 µM. For the same compound, the IC50 in test [2] is 0.88 ± 0.05 µM; in test [3] it was 4.24 ± 0.23 µM; in test [4], 1.09 ± 0.06 µM; in test [6] it was 0.57 ± 0.02 µM. Further, the mode of inhibition entry in test [2] and in test [3] was “uncompetitive” throughout. In test [5], the “effect on the activity of AKR1A1” value is “not affecting”. In addition, the “mode of inhibition … for NADPH” value in test [6] is given as “uncompetitive”.

For the compound `COc1cc(O)c(CC=C(C)C)c(O)c1C(=O)/C=C/c1ccc(O)cc1` [XN, xanthohumol], in test [2], the affinity, expressed as Ki, was 15.1 ± 1.65 µM; it took 29.2 ± 2.3 µM to reach half-maximal inhibition (IC50); the mode of inhibition result is “uncompetitive”. In test [3], the affinity, expressed as Ki, was 20.1 ± 3.73 µM; the IC50 was 41.4 ± 6.86 µM; the mode of inhibition entry is “uncompetitive”. In test [4], this compound gave a half-maximal inhibitory concentration (IC50) of 6.56 ± 0.69 µM and a Ki of 4.56 ± 0.98 µM. For the same compound, in test [5], the “effect on the activity of AKR1A1” value is reported as “not affecting”. Moreover, in test [6], the IC50 stood at 9.11 ± 1.02 µM, the Ki came out at 5.29 ± 0.95 µM and the “mode of inhibition … for NADPH” value is recorded as “non-competitive”.

As for `CC1(C)CC[C@]2(C(=O)O)CC[C@]3(C)C(=CC[C@@H]4[C@@]5(C)CC[C@H](O)C(C)(C)[C@@H]5CC[C@]43C)[C@@H]2C1` [oleanolic acid], the IC50 in test [7] is 0.09 µM.
